In patent publication US20230310445A1, “LOX ENZYME INHIBITING METHODS AND COMPOSITIONS” (ANOVIA BIOSCIENCES, INC., priority 2020, published 2023):

Key:
[1] = target: T1, Bovine lysyl oxidase (LOX) (Bos taurus, UniProt P33072); assay: LOX inhibition assay (fluorometric, cadaverine/Amplex Red/HRP); assay type: biochemical; conditions: IC50 class; bovine tendon LOX, cadaverine substrate; read-out: Activity Range LOX
T1 construct: from tissue; host or cells: adult bovine tendon
T1 sequence (P33072 170-418): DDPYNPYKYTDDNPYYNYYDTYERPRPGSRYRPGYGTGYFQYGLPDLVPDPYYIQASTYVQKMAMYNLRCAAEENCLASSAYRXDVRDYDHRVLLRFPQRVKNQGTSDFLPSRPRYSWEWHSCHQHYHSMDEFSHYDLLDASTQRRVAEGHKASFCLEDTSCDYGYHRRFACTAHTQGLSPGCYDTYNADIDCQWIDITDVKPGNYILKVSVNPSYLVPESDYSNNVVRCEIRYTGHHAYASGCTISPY
In short: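 Bovine tendon-extracted LOX was preincubated 30 min at 37 °C with compound. Cadaverine/Amplex Red/HRP was then added and fluorescence (ex530/em600) monitored for 120 min at 37 °C. Progress-curve slopes, background-subtracted against no-protein wells, were normalised to DMSO controls and fitted with a four-parameter variable-slope dose-response model.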

[2] = target: T2, Recombinant human LOXL2 (lysyl oxidase like 2) (Homo sapiens, UniProt Q9Y4K0); assay: LOXL2 inhibition assay (fluorometric, cadaverine/Amplex Red/HRP); assay type: biochemical; conditions: IC50 class; recombinant human LOXL2, cadaverine substrate; read-out: Activity Range LOXL2
T2 construct: purchased R&D systems
T2 sequence (Q9Y4K0 26-774): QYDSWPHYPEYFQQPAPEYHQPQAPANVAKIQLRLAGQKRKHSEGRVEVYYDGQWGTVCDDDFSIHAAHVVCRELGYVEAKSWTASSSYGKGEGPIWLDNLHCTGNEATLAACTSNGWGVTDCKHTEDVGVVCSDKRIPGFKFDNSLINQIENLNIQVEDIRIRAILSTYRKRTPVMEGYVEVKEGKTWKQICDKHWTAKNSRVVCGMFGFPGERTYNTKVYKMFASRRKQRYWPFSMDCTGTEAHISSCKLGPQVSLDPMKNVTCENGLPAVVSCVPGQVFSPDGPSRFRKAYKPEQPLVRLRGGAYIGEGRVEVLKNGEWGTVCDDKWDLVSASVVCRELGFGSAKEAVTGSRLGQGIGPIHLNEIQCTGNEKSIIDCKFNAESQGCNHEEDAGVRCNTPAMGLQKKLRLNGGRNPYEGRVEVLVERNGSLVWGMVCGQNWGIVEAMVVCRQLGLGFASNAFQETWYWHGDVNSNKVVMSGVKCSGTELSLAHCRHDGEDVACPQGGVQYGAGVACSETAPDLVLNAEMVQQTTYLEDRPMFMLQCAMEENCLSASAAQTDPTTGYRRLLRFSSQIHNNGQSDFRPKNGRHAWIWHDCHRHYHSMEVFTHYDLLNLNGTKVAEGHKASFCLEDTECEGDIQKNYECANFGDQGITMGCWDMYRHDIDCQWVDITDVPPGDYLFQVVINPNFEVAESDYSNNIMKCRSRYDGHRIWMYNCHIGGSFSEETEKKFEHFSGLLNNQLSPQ
In short: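 Both enzymes assayed in 1.2 M urea, 50 mM sodium borate pH 8.0, 10 mM CaCl, with 30 min compound–enzyme preincubation at 37° C before cadaverine/Amplex Red/HRP addition. Fluorescence followed 60 min at 37° C; linear-slope rates, background-subtracted, as % of DMSO control, fitted by 4-parameter variable-slope curve (bottom fixed at 0).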

SMILES | IC50 [1] [µM] | IC50 [2] [µM]
NCc1cncc(S(=O)(=O)N2C[C@@H](C(=O)N3CCOCC3)C[C@@H](c3ccccc3)C2)c1 (racemic) [Example 131, cis-(1-((5-(Aminomethyl)pyridin-3-yl)sulfonyl)-5-phenylpiperidin-3-yl)(morpholino)methanone 2,2,2-trifluoroacetate] | > 30 | 1 to 30
NCc1cncc(S(=O)(=O)N2C[C@@H](C(=O)N3CCS(=O)(=O)CC3)C[C@@H](c3ccccc3)C2)c1 (racemic) [Example 132, cis-(1-((5-(Aminomethyl)pyridin-3-yl)sulfonyl)-5-phenylpiperidin-3-yl)(1,1-dioxidothiomorpholino)methanone 2,2,2-trifluoroacetate] | > 30 | 1 to 30
CN(C)C(=O)N1C[C@@H](C2CCCCC2)C[C@@H](S(=O)(=O)c2cccc(CN)c2)C1 (racemic) [Example 135, cis-3-((3-(Aminomethyl)phenyl)sulfonyl)-5-cyclohexyl-N,N-dimethylpiperidine-1-carboxamide] | > 30 | ≤ 0.5
NCc1cccc(S(=O)(=O)[C@@H]2C[C@H](C3CCCCC3)CN(C(=O)N3CCS(=O)(=O)CC3)C2)c1 (racemic) [Example 137, cis-(3-((3-(Aminomethyl)phenyl)sulfonyl)-5-cyclohexylpiperidin-1-yl)(1,1-dioxidothiomorpholino)methanone] | > 30 | ≤ 0.5
CN(C)C(=O)[C@@H]1C[C@H](S(=O)(=O)c2cccc(CN)c2)CN(C2CCCCC2)C1 (racemic) [Example 141, cis-5-((3-(Aminomethyl)phenyl)sulfonyl)-1-cyclohexyl-N,N-dimethylpiperidine-3-carboxamide] | > 30 | ≤ 0.5
NCc1cccc(S(=O)(=O)[C@H]2C[C@@H](C(=O)N3CCOCC3)CN(C3CCCCC3)C2)c1 (racemic) [Example 142, cis-(5-((3-(Aminomethyl)phenyl)sulfonyl)-1-cyclohexylpiperidin-3-yl)(morpholino)methanone 2,2,2-trifluoroacetate] | > 30 | ≤ 0.5
NCc1cccc(S(=O)(=O)[C@H]2C[C@@H](C(=O)N3CCS(=O)(=O)CC3)CN(C3CCCCC3)C2)c1 (racemic) [Example 143, cis-(5-((3-(Aminomethyl)phenyl)sulfonyl)-1-cyclohexylpiperidin-3-yl)(1,1-dioxidothiomorpholino)methanone 2,2,2-trifluoroacetate] | > 30 | ≤ 0.5
NCc1ccnc(S(=O)(=O)N2C[C@@H](C(=O)N3CCS(=O)(=O)CC3)C[C@@H](N3CCCCC3)C2)c1 (racemic) [Example 148, cis-(1′-((4-(Aminomethyl)pyridin-2-yl)sulfonyl)-[1,3′-bipiperidin]-5′-yl)(1,1-dioxidothiomorpholino)methanone 2,2,2-trifluoroacetate] | 1 to 30 | ≤ 0.5
CS(=O)(=O)N1CCN(C(=O)[C@H]2C[C@@H](N3CCCCC3)CN(S(=O)(=O)c3cc(CN)ccn3)C2)CC1 (racemic) [Example 149, cis-(1′-((4-(Aminomethyl)pyridin-2-yl)sulfonyl)-[1,3′-bipiperidin]-5′-yl)(4-(methylsulfonyl)piperazin-1-yl)methanone 2,2,2-trifluoroacetate] | > 30 | 0.5 to 1
CN1CCN(C(=O)[C@H]2C[C@@H](N3CCCCC3)CN(S(=O)(=O)c3cc(CN)ccn3)C2)CC1 (racemic) [Example 150, cis-(1′-((4-(Aminomethyl)pyridin-2-yl)sulfonyl)-[1,3′-bipiperidin]-5′-yl)(4-methylpiperazin-1-yl)methanone 2,2,2-trifluoroacetate] | 1 to 30 | 0.5 to 1
NCc1ccnc(S(=O)(=O)N2C[C@@H](C(=O)N3CCOCC3)C[C@@H](N3CCOCC3)C2)c1 (racemic) [Example 155, cis-(1-((4-(Aminomethyl)pyridin-2-yl)sulfonyl)-5-morpholinopiperidin-3-yl)(morpholino)methanone 2,2,2-trifluoroacetate] | 1 to 30 | 0.5 to 1
NCc1ccnc(S(=O)(=O)N2C[C@H](C(=O)N3CCOCC3)C[C@H](N3CCCCC3=O)C2)c1 (racemic) [Example 186, cis-1′-((4-(Aminomethyl)pyridin-2-yl)sulfonyl)-5′-(morpholine-4-carbonyl)-[1,3′-bipiperidin]-2-one 2,2,2-trifluoroacetate] | 1 to 30 | ≤ 0.5
NCc1ccnc(S(=O)(=O)N2C[C@@H](C(=O)N3CCS(=O)(=O)CC3)C[C@@H](N3CCCCC3=O)C2)c1 (racemic) [Example 187, cis-1′-((4-(Aminomethyl)pyridin-2-yl)sulfonyl)-5′-(1,1-dioxidothiomorpholine-4-carbonyl)-[1,3′-bipiperidin]-2-one 2,2,2-trifluoroacetate] | 1 to 30 | ≤ 0.5
NCc1cccc(S(=O)(=O)N2C[C@@H](C(=O)N3CCOCC3)C[C@@H](C(F)(F)F)C2)c1 (relative stereo) [Example 98, cis-(1-((3-(Aminomethyl)phenyl)sulfonyl)-5-(trifluoromethyl)piperidin-3-yl)(morpholino)methanone 2,2,2-trifluoroacetate] | > 30 | 1 to 30

Results, then the compound that gave them:

IC50 [1] [µM] | IC50 [2] [µM] | SMILES
1 to 30 | ≤ 0.5 | NCc1cc(S(=O)(=O)N2C[C@H](C(=O)N3CCS(=O)(=O)CC3)C[C@@H](c3ccccc3)C2)ccn1 (racemic) [Example 130T, trans-(1-((2-(Aminomethyl)pyridin-4-yl)sulfonyl)-5-phenylpiperidin-3-yl)(1,1-dioxidothiomorpholino)methanone 2,2,2-trifluoroacetate]
> 30 | ≤ 0.5 | NCc1cccc(S(=O)(=O)[C@H]2C[C@H](C3CCCCC3)CN(C(=O)N3CCS(=O)(=O)CC3)C2)c1 (racemic) [Example 137T, trans-(3-((3-(Aminomethyl)phenyl)sulfonyl)-5-cyclohexylpiperidin-1-yl)(1,1-dioxidothiomorpholino)methanone]
> 30 | ≤ 0.5 | CN(C)C(=O)[C@H]1C[C@H](S(=O)(=O)c2cccc(CN)c2)CN(C2CCCCC2)C1 (racemic) [Example 141T, trans-5-((3-(Aminomethyl)phenyl)sulfonyl)-1-cyclohexyl-N,N-dimethylpiperidine-3-carboxamide]
> 30 | ≤ 0.5 | NCc1cccc(S(=O)(=O)[C@H]2C[C@H](C(=O)N3CCOCC3)CN(C3CCCCC3)C2)c1 (racemic) [Example 142T, trans-(5-((3-(Aminomethyl)phenyl)sulfonyl)-1-cyclohexylpiperidin-3-yl)(morpholino)methanone 2,2,2-trifluoroacetate]
≤ 0.5 | ≤ 0.5 | NCc1ccc(S(=O)(=O)N2C[C@@H](C(=O)N3CCOCC3)C[C@@H](c3ccccc3)C2)s1 [Example 13A, ((3S,5S)-1-((5-(aminomethyl)thiophen-2-yl)sulfonyl)-5-phenylpiperidin-3-yl)(morpholino)methanone]
